Source: patent US7022725B2, “Isoxazole derivatives” (Takeda Pharmaceutical Company Limited, priority 2000, dated 2006)

Assays:
[1] = system: pancreatic Langerhans' islet of rats; assay: Insulin secretion promoting action in pancreatic Langerhans' islet of rats; assay type: cell-based, rat; conditions: test compound 100 μmol/L, 7.5 mmol/L glucose, 1 hr incubation; insulin secretion amount relative to control group, amended by DNA amount
Experimental: Insulin Secretion Promoting Action in Pancreatic Langerhans' Islet of Rats
The pancreas of 8-week-old male SD rat was treated with collagenase and the isolated Langerhans' islet was preincubated for 1 hr in a medium (KRB) containing 2.8 mmol/L glucose in a 24 well incubation plate, which was followed by incubation for 1 hr in KRB containing the test compound (100 μmol/L, see Table 2) and 7.5 mmol/L glucose (control group was free of test compound). The medium was recovered and the amount of the secreted insulin was measured using a radioimmunoassay kit (trademark: SHIONORIA insulin kit (manufactured by Shionogi & Co., Ltd.)). The Langerhans' islet was lysed by ultrasonication and the DNA amount was measured, based on which the insulin level in the medium was amended. The insulin secretion amount of the test compound group is expressed in a value (%) relative to the control group and shown in Table 2.

Male SD rats = assay: Hypoglycemic action in rats (oral glucose tolerance test); assay type: in vivo; conditions: Rattus norvegicus, 0.5 h, male SD rats fasted overnight, glucose load 2 g/kg 60 min later, blood drawn 30 min after starting glucose loading, read-out: glucose level (% of control); for response vs control in vivo at 30 mg/kg: 30 mg/kg body weight oral; for response vs control in vivo at 50 mg/kg: 50 mg/kg body weight oral
Experimental: Hypoglycemic Action in Rats
Male SD rats (7 weeks of age, 5 per group) were fasted overnight and blood was drawn from the tail vein to measure the glucose level before administration of the test compound. Then the test compound (30 mg/kg body weight/10 mL (compounds of Examples 8, 16, 66, 68, 79, 94, 123) or 50 mg/kg body weight/10 mL (compounds of Examples 58, 70)) suspended in 0.5% methyl cellulose was orally administered to the rats using a gastric tube. Oral glucose tolerance test (2 g/kg body weight/10 mL) was started 60 min later. Blood was drawn at 30 min after starting the glucose loading, and glucose level was measured. The glucose level was measured using an automatic analyzer (HITACHI 7070).

melting point [°C] | SMILES | insulin secretion promoting action (%) [1] [%] | response vs control in vivo at 30 mg/kg (Male SD rats) [%] | response vs control in vivo at 50 mg/kg (Male SD rats) [%]
– | O=C(O)CCc1cnoc1-c1ccc(Cl)cc1 [Example 8, 3-[5-(4-chlorophenyl)-4-isoxazolyl]propionic acid] | 256 | 85 | –
138 to 139 | O=C(O)CCc1cnoc1-c1ccc(Cl)s1 [Example 64, 3-[5-(5-chloro-2-thienyl)-4-isoxazolyl]propionic acid] | 273 | – | –
– | OCCCc1cnoc1-c1ccc(F)c(F)c1 [Example 79, 3-[5-(3,4-difluorophenyl)-4-isoxazolyl]propan-1-ol] | – | 77 | –
142 to 143 | O=C(O)CCc1cnoc1-c1cc(Cl)c(Cl)s1 [Example 123, 3-[5-(4,5-dichloro-2-thienyl)-4-isoxazolyl]propionic acid] | – | 86 | –
– | OCCCc1cnoc1-c1ccc(Cl)cc1 [Example 16, 3-[5-(4-chlorophenyl)-4-isoxazolyl]propan-1-ol] | – | 88 | –
– | OCCCc1cnoc1-c1ccc(F)c(Cl)c1 [Example 94, 3-[5-(3-chloro-4-fluorophenyl)-4-isoxazolyl]propan-1-ol] | – | 81 | –
– | OCCCc1cnoc1-c1ccc(F)cc1 [Example 58, 3-[5-(4-fluorophenyl)-4-isoxazolyl]propan-1-ol] | – | – | 85
– | OCCCc1cnoc1-c1ccc(Cl)s1 [Example 66, 3-[5-(5-chloro-2-thienyl)-4-isoxazolyl]propan-1-ol] | – | 80 | –
– | OCCCc1cnoc1-c1ccc(Cl)c(Cl)c1 [Example 68, 3-[5-(3,4-dichlorophenyl)-4-isoxazolyl]propan-1-ol] | – | 75 | –
171 to 172 | O=C(O)CCc1cnoc1-c1ccc(Cl)c(Cl)c1 [Example 70, 3-[5-(3,4-dichlorophenyl)-4-isoxazolyl]propionic acid] | 235 | – | 88
118 to 119 | O=C(O)CCc1cnoc1-c1ccc(F)c(Cl)c1 [Example 92, 3-[5-(3-chloro-4-fluorophenyl)-4-isoxazolyl]propionic acid] | 156 | – | –
102 to 103 | O=C(O)CCc1cnoc1-c1ccc(F)c(F)c1 [Example 77, 3-[5-(3,4-difluorophenyl)-4-isoxazolyl]propionic acid] | 201 | – | –
